Measurements taken from PMC7226860 (ACS Omega, 2020).
Values after ≈ are worked out from the molar mass of the structure shown.

Columns and labels:
[1] = tested on: C. albicans (ATCC: 10231); assay: MIC, twofold serial dilution; type: cell-based, Candida albicans; settings: C. albicans (ATCC: 10231); read after 24 h
[2] = tested on: C. albicans (ATCC: 10231); assay: Agar well diffusion, inhibition zone; type: cell-based, Candida albicans; settings: for diameter of the inhibition zone: C. albicans (ATCC: 10231), fungi, 15 mg/mL, mean ± SD
[3] = tested on: E. coli (ATCC: 3008); assay: Agar well diffusion, inhibition zone; type: cell-based, Escherichia coli; settings: for zone of inhibition at 15000 µg/mL: Escherichia coli, read-out: diameter of the inhibition zone; for diameter of the inhibition zone: E. coli (ATCC: 3008), Gram (−ve), agar well diffusion, 15 mg/mL, mean ± SD
[4] = molecular target: T1, human DHFR (Homo sapiens, UniProt P00374); assay: DHFR inhibitor screening kit; type: biochemical; settings: for inhibition at 0.01 µg/mL / inhibition at 0.1 µg/mL / inhibition at 1 µg/mL / inhibition at 10 µg/mL: read-out: Inhibition of DHFR enzyme
T1 sequence (P00374 1-187): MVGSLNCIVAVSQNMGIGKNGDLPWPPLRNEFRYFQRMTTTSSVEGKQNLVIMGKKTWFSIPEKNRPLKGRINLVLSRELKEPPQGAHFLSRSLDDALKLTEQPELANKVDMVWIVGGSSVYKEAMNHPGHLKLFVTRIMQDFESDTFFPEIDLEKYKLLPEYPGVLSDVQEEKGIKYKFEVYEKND

[5] = tested on: K. pneumonia (ATCC: 4415); assay: Agar well diffusion, inhibition zone; type: cell-based, Klebsiella pneumonia; settings: for zone of inhibition at 15000 µg/mL: Klebsiella pneumoniae, read-out: diameter of the inhibition zone, K. pneumonia (ATCC: 4415), Gram (−ve), 15 mg/mL, mean ± SD; for diameter of the inhibition zone: K. pneumonia (ATCC: 4415), Gram (−ve), 15 mg/mL, mean ± SD
[6] = tested on: E. coli (ATCC: 3008); assay: MIC, twofold serial dilution; type: cell-based; settings: Escherichia coli, 24 h
[7] = tested on: P. aeruginosa (ATCC: 27853); assay: Agar well diffusion, inhibition zone; type: cell-based, Pseudomonas aeruginosa; settings: P. aeruginosa (ATCC: 27853), Gram (−ve); agar well diffusion, 15 mg/mL; mean ± SD
[8] = tested on: S. aureus (ATCC: 6538); assay: MIC, twofold serial dilution; type: cell-based; settings: Staphylococcus aureus, 24 h
[9] = tested on: S. mutans (ATCC: 25175); assay: Agar well diffusion, inhibition zone; type: cell-based, Streptococcus mutans; settings: for zone of inhibition at 15000 µg/mL: Streptococcus mutans, read-out: diameter of the inhibition zone; for diameter of the inhibition zone: S. mutans (ATCC: 25175), Gram (+ve), agar well diffusion, 15 mg/mL, mean ± SD
[10] = tested on: S. aureus (ATCC: 6538); assay: Agar well diffusion, inhibition zone; type: cell-based, Staphylococcus aureus; settings: for zone of inhibition at 15000 µg/mL: Staphylococcus aureus, read-out: diameter of the inhibition zone; for diameter of the inhibition zone: S. aureus (ATCC: 6538), Gram (+ve), agar well diffusion, 15 mg/mL, mean ± SD
[11] = tested on: HFB4 human dermal fibroblast cell line; assay: MTT cytotoxicity assay; type: cell-based; settings: 48 h
[12] = tested on: S. mutans (ATCC: 25175); assay: MIC, twofold serial dilution; type: cell-based; settings: Streptococcus mutans, 24 h
[13] = tested on: K. pneumonia (ATCC: 4415); assay: MIC, twofold serial dilution; type: cell-based; settings: Klebsiella pneumoniae, 24 h, read after 24 h

| SMILES | diameter of the inhibition zone [2] | zone of inhibition at 15000 µg/mL [3] [mm] | zone of inhibition at 15000 µg/mL [5] [mm] | diameter of the inhibition zone [7] | zone of inhibition at 15000 µg/mL [9] [mm] | zone of inhibition at 15000 µg/mL [10] [mm] | diameter of the inhibition zone [3] | diameter of the inhibition zone [5] | diameter of the inhibition zone [9] | diameter of the inhibition zone [10] | other results |
| --- | --- | --- | --- | --- | --- | --- | --- | --- | --- | --- | --- |
| C[C@@H]1[C@H](O)[C@@H](C)/C=C/C=C/CC/C=C/C=C/C=C/C=C/C(O[C@H]2O[C@H](C)[C@@H](O)[C@H](N)[C@@H]2O)CC2O[C@](O)(CC(O)C(O)CCC(O)CC(O)CC(O)CC(=O)O[C@H]1C)CC(O)C2C(=O)O (stereo partly drawn) [Nystatin, reference compound] | 28.0 ± 0.1 mm |  |  |  |  |  |  |  |  |  | MIC [1]: 31.25 µg/mL (≈ 33.7 µM) |
| Cc1ccc(S(=O)(=O)NNC(=O)Cc2nc3ccccc3s2)cc1 [compound 3b, N′-(2-(Benzo[d]thiazol-2-yl)acetyl)-4-methylbenzenesulfonohydrazide] | − | 17.3 ± 2.5 | 32 ± 2 | − | 10.6 ± 0.5 | 17.6 ± 2.5 |  |  |  |  | IC50 [4]: 1.02 µM; inhibition at 0.01 µg/mL [4]: 17.9%; inhibition at 0.1 µg/mL [4]: 33.4%; inhibition at 1 µg/mL [4]: 60.9%; inhibition at 10 µg/mL [4]: 81.5%; MIC [6]: 250 µg/mL (≈ 692 µM); MIC [8]: 1000 µg/mL (≈ 2770 µM); IC50 [11]: 165 ± 3.04 µg/mL (≈ 456 µM); MIC [12]: 1000 µg/mL (≈ 2770 µM) |
| CSc1c(C(=O)Nc2ccc(C)cc2)c(N)n(NS(=O)(=O)c2ccc(C)cc2)c(=O)c1-c1nc2ccccc2s1 [compound 9d, 2-Amino-5-(benzo[d]thiazol-2-yl)-1-(4-methylphenylsulfonamido)-4-(methylthio)-6-oxo-N-(p-tolyl)-1,6-dihydropyridine-3-carboxamide] | 28.0 ± 0.7 mm |  |  | − | 8.8 ± 1 | 26.8 ± 1.5 | − | − |  |  | zone of inhibition at 15000 µg/mL ([2]; Candida albicans, read-out: diameter of the inhibition zone, C. albicans (ATCC: 10231), fungi, 15 mg/mL, mean ± SD): 21 to 28 mm |
| CSc1c(C#N)c(O)n(NS(=O)(=O)c2ccccc2)c(=O)c1-c1nc2ccccc2s1 [compound 5c, N-(3-(Benzo[d]thiazol-2-yl)-5-cyano-6-hydroxy-4-(methylthio)-2-oxopyridin-1(2H)-yl)benzenesulfonamide] | − | 23.3 ± 1.5 | 27.3 ± 1.5 | − |  | 17.6 ± 1.5 |  |  | − |  |  |
| CSc1c(C(=O)Nc2ccccc2)c(N)n(NS(=O)(=O)c2ccc(C)cc2)c(=O)c1-c1nc2ccccc2s1 [compound 9b, 2-Amino-5-(benzo[d]thiazol-2-yl)-1-(4-methylphenylsulfonamido)-4-(methylthio)-6-oxo-N-phenyl-1,6-dihydropyridine-3-carboxamide] | − |  |  | − |  | 27.1 ± 0.2 | − | − | − |  |  |
| O=C(Cc1nc2ccccc2s1)NNS(=O)(=O)c1ccccc1 [compound 3a, N′-(2-(Benzo[d]thiazol-2-yl)acetyl)benzenesulfonohydrazide] | − |  | 20 ± 3 | − |  |  | − ^a |  | − | − |  |
| CSc1c(C(=O)Nc2ccc(C)cc2)c(N)n(NS(=O)(=O)c2ccccc2)c(=O)c1-c1nc2ccccc2s1 [compound 9c, 2-Amino-5-(benzo[d]thiazol-2-yl)-4-(methylthio)-6-oxo-1-(phenylsulfonamido)-N-(p-tolyl)-1,6-dihydropyridine-3-carboxamide] | − | 14.8 ± 0.2 | 29 | − | 20.2 ± 1 |  |  | 29.2 ± 0.3 mm |  | − |  |
| Cc1ccc(S(=O)(=O)Nn2c(N)c3c(N)n[nH]c3c(-c3nc4ccccc4s3)c2=O)cc1 [compound 11b, N-(3,4-Diamino-7-(benzo[d]thiazol-2-yl)-6-oxo-1H-pyrazolo[4,3-c]pyridin-5(6H)-yl)-4-methylbenzenesulfonamide] | no potency and − | 26 ± 1 | 17.5 ± 0.5 | − | 21 ± 1 | 25.2 ± 1 | 26.0 ± 1.0 mm |  |  |  | MIC [13]: 125 µg/mL (≈ 267 µM); IC50 [4]: 11.8 µM; inhibition at 0.01 µg/mL [4]: 12.4%; inhibition at 0.1 µg/mL [4]: 19.3%; inhibition at 1 µg/mL [4]: 31.2%; inhibition at 10 µg/mL [4]: 60.1%; MIC [6]: 31.2 µg/mL (≈ 66.8 µM); MIC [8]: 500 µg/mL (≈ 1070 µM); IC50 [11]: 295 ± 19.1 µg/mL (≈ 631 µM); MIC [12]: 500 µg/mL (≈ 1070 µM) |
| CSc1c(C#N)c(O)n(NS(=O)(=O)c2ccc(C)cc2)c(=O)c1-c1nc2ccccc2s1 [compound 5d, N-(3-(Benzo[d]thiazol-2-yl)-5-cyano-6-hydroxy-4-(methylthio)-2-oxopyridin-1(2H)-yl)-4-methylbenzenesulfonamide] | − |  | 18.2 ± 0.5 | − |  | 17.5 ± 2 | − |  | − |  |  |
| COc1ccc(NC(=O)c2c(SC)c(-c3nc4ccccc4s3)c(=O)n(NS(=O)(=O)c3ccccc3)c2N)cc1 [compound 9e, 2-Amino-5-(benzo[d]thiazol-2-yl)-N-(4-methoxyphenyl)-4-(methylthio)-6-oxo-1-(phenylsulfonamido)-1,6-dihydropyridine-3-carboxamide] | − |  |  | − |  | 19.6 ± 1 | − | no activity and − | − |  |  |
| CSc1c(C(=O)Nc2ccccc2)c(N)n(NS(=O)(=O)c2ccccc2)c(=O)c1-c1nc2ccccc2s1 [compound 9a, 2-Amino-5-(benzo[d]thiazol-2-yl)-4-(methylthio)-6-oxo-N-phenyl-1-(phenylsulfonamido)-1,6-dihydropyridine-3-carboxamide] | − |  |  | − |  | 31 ± 1 | − | − | − | 31 ± 1.0 mm |  |
| CC1(C)S[C@@H]2[C@H](NC(=O)[C@H](N)c3ccccc3)C(=O)N2[C@H]1C(=O)O [Ampicillin, reference compound] |  |  |  |  | 22 ± 0.5 | 32 ± 0.5 |  |  |  |  | MIC [8]: 62.5 µg/mL (≈ 179 µM); MIC [12]: 62.5 µg/mL (≈ 179 µM) |
| COc1ccc(NC(=O)c2c(SC)c(-c3nc4ccccc4s3)c(=O)n(NS(=O)(=O)c3ccc(C)cc3)c2N)cc1 [compound 9f, 2-Amino-5-(benzo[d]thiazol-2-yl)-N-(4-methoxyphenyl)-1-(4-methylphenylsulfonamido)-4-(methylthio)-6-oxo-1,6-dihydropyridine-3-carboxamide] | − |  | 29 | − |  |  | − | 29.6 ± 1.5 mm | − | − |  |
